From patent publication US20250122455A1, “INTEGRATED SYSTEM FOR MULTIPLE CULTIVATIONS OF A BIOLOGICAL AGENT AND METHODS OF USE THEREOF” (The Hong Kong Polytechnic University, priority 2023, published 2025) come the findings set out here.

In experiment [1] the test system is PAO1 static biofilms. In words: Alamar blue viability of static biofilms in the BDR device after antibiotic treatment. The class given is cell-based, Pseudomonas aeruginosa. On the procedure:
The PAO1 culture was diluted 100-fold in ABTGC media and inoculated at 100 μl into each channel of the microfluidic model using a syringe and needle. Then the model was placed in a 37° C. incubator for 20 mins to allow bacteria to colonize the bottom of the microwells. ABTGC media containing tobramycin (Sigma) with concentrations of 0, 0.625, 1.25, 2.5, 5 ug/ml were injected into each chamber for 12 hrs treatment. Alamar blue cell viability reagent (Thermo Fisher) was diluted with culture media to 10% and injected into chambers, then incubated at 37° C. until the color changed from blue to pink. The colored liquid was collected from the chamber for direct measurement of OD600 nm and fluorescence (Ex: 560 nm, Em: 590 nm) using a microplate reader (Thermo Scientific Varioskan LUX Multimode Microplate Reader).

Experiment [2] relates to P. aeruginosa biofilms. The class given is cell-based, Pseudomonas aeruginosa.

In the case of `NC[C@H]1O[C@H](O[C@H]2[C@H](O)[C@@H](O[C@H]3O[C@H](CO)[C@@H](O)[C@H](N)[C@H]3O)[C@H](N)C[C@@H]2N)[C@H](N)C[C@@H]1O` [tobramycin], in experiment [1] (increasing tobramycin 0-5 ug/ml, 12 hrs treatment, without continuous flow, FIG. 22A), the “Fluorescence level of Alamar blue” value is listed as “decreased”. Also, in experiment [1] (increasing tobramycin, static biofilms, FIG. 22B), the “Bacterial numbers (viable cell populations)” value is recorded as “reducing bacterial numbers”.
cellulase: in experiment [2], the “Biofilm biomass change during EDA” value is given as “continuous reduction of biofilm from top to bottom of the microwells”.
